Measured values from patent US20240415756A1, “PEPTIDES AND COMPOSITIONS FOR USE IN COSMETICS” (LIPOTRUE, S.L., priority 2022, published 2024).
Marks after values point to notes of the source that are not given here. Ends that are not written are not given here.

Assays:
[1] = tested on: voltage-gated sodium channels; assay: QPatch48 HT electrophysiology of sodium channels in SHSY-5Y cells; format: cell-based, human
Procedure: Using SHSY-5Y cells, electrophysiology was performed to measure ion channel activity using the QPatch48 HT (Sophion, Denmark). The samples tested were: • Negative control: 0.05% (v/v) Bovine Serum Albumin • Positive control: Tetradotoxin (TTX) at a concentration of 3 nM, 10 nM and 30 nM. • SEQ ID NO: 2—NH2 at a concentration of 0.005 mg/mL, 0.01 mg/ml and 0.05 mg/mL. • SEQ ID NO: 3—NH2 at a concentration of 0.005 mg/mL, 0.01 mg/ml and 0.05 mg/mL. • SEQ ID NO: 4—NH2 at a concentration of 0.005 mg/mL, 0.01 mg/ml and 0.05 mg/mL. • SEQ ID NO: 5—NH2 at a concentration of 0.005 mg/ml, 0.01 mg/mL and 0.05 mg/mL. • SEQ ID NO: 6—NH2 at a concentration of 0.005 mg/mL, 0.01 mg/ml and 0.05 mg/mL.
The percentage inhibition for each test dose application period was calculated as a reduction in mean cursor value (peak current) relative to the cursor value measured at the end of the vehicle control (pre-drug) and normalized to the maximum inhibition recorded with the supramaximal addition of TTX.

human NaV1.3 = target: T1, human NaV1.3 (Homo sapiens, UniProt Q9NY46); assay: QPatch48 HT electrophysiology of NaV1.3 stably transfected into CHO cells; format: cell-based; conditions: 10 μM peptide, triplicate, vs separate negative control
T1 construct: expressed in transfected cells; host or cells: Chinese Hamster Ovary (CHO) cells, stably transfected
T1 sequence (Q9NY46 whole entry): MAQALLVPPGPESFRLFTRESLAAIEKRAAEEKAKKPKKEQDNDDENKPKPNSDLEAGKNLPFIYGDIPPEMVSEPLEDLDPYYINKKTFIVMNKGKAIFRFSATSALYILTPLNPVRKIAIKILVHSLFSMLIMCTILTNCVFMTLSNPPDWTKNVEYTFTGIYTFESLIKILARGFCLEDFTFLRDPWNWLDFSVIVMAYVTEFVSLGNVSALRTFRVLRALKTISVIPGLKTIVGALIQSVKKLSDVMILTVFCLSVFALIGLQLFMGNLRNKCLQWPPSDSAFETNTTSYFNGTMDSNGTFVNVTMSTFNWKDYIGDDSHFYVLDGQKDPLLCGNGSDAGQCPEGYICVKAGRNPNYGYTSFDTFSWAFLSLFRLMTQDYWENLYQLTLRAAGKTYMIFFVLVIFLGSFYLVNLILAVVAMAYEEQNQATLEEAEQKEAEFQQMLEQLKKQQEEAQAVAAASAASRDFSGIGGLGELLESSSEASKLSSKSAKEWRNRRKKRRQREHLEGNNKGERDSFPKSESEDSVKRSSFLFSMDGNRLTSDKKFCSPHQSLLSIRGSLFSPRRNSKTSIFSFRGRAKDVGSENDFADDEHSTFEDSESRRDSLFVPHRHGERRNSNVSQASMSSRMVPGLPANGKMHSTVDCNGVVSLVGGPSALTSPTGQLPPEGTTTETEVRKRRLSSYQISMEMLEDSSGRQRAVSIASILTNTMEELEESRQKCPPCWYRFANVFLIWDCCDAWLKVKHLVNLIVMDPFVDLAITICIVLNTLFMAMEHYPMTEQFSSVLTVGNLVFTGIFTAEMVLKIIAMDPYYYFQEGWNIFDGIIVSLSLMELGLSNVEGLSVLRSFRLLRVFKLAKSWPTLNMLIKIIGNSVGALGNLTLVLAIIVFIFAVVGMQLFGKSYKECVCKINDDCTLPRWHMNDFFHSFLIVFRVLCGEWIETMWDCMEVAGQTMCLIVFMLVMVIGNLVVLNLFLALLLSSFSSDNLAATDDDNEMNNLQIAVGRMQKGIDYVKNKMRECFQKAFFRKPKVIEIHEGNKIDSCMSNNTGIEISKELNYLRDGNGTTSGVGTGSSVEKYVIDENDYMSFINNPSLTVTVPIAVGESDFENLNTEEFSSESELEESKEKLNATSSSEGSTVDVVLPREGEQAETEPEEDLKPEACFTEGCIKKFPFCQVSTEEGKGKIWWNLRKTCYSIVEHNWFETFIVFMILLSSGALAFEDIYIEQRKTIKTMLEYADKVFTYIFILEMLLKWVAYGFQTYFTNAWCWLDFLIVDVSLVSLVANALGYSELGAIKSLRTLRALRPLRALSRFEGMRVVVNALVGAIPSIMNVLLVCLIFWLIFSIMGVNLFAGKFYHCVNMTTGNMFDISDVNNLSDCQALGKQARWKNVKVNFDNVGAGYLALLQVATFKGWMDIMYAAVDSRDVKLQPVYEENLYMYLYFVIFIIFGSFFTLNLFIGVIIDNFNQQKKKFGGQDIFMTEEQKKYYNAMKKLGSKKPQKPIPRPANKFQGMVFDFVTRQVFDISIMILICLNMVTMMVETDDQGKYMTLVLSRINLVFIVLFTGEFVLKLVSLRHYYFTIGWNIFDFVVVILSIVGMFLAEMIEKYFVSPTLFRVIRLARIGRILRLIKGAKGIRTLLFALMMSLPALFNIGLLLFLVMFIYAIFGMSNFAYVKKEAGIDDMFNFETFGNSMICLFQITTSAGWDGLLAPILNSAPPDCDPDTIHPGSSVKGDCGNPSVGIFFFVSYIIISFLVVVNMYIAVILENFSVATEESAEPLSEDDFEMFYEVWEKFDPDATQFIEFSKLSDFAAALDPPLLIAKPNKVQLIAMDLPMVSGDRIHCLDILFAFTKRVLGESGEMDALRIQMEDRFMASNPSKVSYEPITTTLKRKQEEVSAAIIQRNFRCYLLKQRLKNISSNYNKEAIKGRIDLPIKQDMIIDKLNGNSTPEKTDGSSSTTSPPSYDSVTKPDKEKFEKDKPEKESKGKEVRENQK
Procedure: Using human NaV1.3 stably transfected into Chinese Hamster Ovary (CHO) cells, electrophysiology was performed to measure ion channel activity using the QPatch48 HT (Sophion, Denmark). Experiments were performed in triplicate and using a concentration of peptide of 10 μM. A separate negative control was performed for each of the peptides. As positive control Amitriptyline was used.

[2] = tested on: muscle contraction-related genes; assay: RT-qPCR expression of muscle contraction-related genes in myocytes; format: cell-based, human; conditions: 0.01 or 0.005 mg/mL, 24 h
Procedure: A stock solution of the peptide was prepared in milli-Q water at 25 mg/mL. This stock was further diluted in the corresponding supplemented medium to obtain the final working concentrations of 0.01 and 0.005 mg/mL. Untreated cells were used as negative control samples.
The relevant genes for which the expression was measured were: SCN1B (Sodium Voltage-Gated Channel Beta Subunit 1), SCN4A (Sodium Voltage-Gated Channel Alpha Subunit 4), SCN3A (Sodium Voltage-Gated Channel Alpha Subunit 3), CALM3 (Calmodulin 3) and RAPSN (Receptor Associated Protein of the Synapse). The primers used for each of the genes were commercially available TaqMan Gene Expression Assay probes. The experiment was performed in vitro in myocytes, two concentrations of the peptide were tested (0.01 mg/ml and 0.005 mg/mL) at 24 h.
Briefly, human skeletal muscle myoblasts were seeded in 12-well plates at a density of 1×10^5 cells/well and maintained at standard culture conditions (SKM-M medium supplemented with 1% Antibiotic/Antimycotic; 37° C., 95% Relative Humidity, 5% CO2) for 48-72 hours until the plated myoblasts reached 80-90% confluence. […]
The obtained data were analyzed using the ΔΔCt method, which provides the target gene expression values as fold changes in the treated sample compared with an untreated basal sample. […]

HDFa cells [3] = assay: Elastin synthesis in HDFa cells (Fastin Elastin Assay Kit); format: cell-based, human; conditions: 0.01 and 0.015 mg/ml, 48 hours, vs untreated samples
Procedure: A stock solution of the peptide was prepared in water at 25 mg/mL. This stock was further diluted to obtain the final working concentrations of 0.005, 0.01 or 0.015 mg/mL in complete medium (Medium 106 supplemented with 2% LSGS). Untreated cells were used as basal condition.
For this study, HDFa cells were seeded in a 12-well plate at a density of 120,000 cells/well and maintained at standard culture conditions (Medium 106+2% LSGS; 37° C., 95% Relative Humidity, 5% CO2) for 24 hours. Then, fibroblasts were treated for 48 hours with 0.005, 0.01 or 0.015 mg/mL of the peptide mentioned above. After treatment, cells were harvested for elastin quantification with the Fastin Elastin Assay Kit, according to manufacturer instructions. Each condition was performed at least in triplicate (n=3) in three independent experiments (N=3).

HDFa cells [4] = assay: Procollagen I alpha 1 release from HDFa cells (ELISA); format: cell-based, human; conditions: 48 h
Procedure: A stock solution of the peptide was prepared in water at 25 mg/mL. This stock was further diluted to obtain the final working concentrations of 0.01, 0.015 or 0.05 mg/mL in complete medium (Medium 106 supplemented with 2% LSGS). Untreated cells were used as basal condition.
For this study, HDFa cells were seeded in a 24-well plate at a density of 100,000 cells/well and maintained at standard culture conditions (Medium 106 supplemented with 2% LSGS; 37° C., 95% Relative Humidity, 5% CO2) for 24 hours.
After 24 hours, cells were treated for 48 h with the peptide of the present invention mentioned above (0.01, 0.015 and 0.05 mg/mL). After treatments, supernatants were collected and centrifuged in order to eliminate cell debris and were kept at −80° C. until they were used for procollagen I alpha 1 quantification with a human procollagen I alpha 1 DuoSet ELISA kit according to manufacturer instructions. Each condition was performed at least in triplicate (n=3) in three independent experiments (N=3).

[5] = tested on: Human Fibroblast (SF-TY JCRB); assay: Hyaluronic acid synthesis in human skin fibroblasts (ELISA); format: cell-based; conditions: 48 hours, first experimental session; for % HA content: negative control = 100
Procedure: In this case the objective of this experiment was to evaluate in vitro the capability of the peptides of the present invention to increase Hyaluronic Acid (HA) synthesis or production in human skin fibroblasts. This evaluation was carried out by determination of HA amount after cell treatment with the peptide (at the different concentrations noted below), for 48 hours.
The experimental groups were: • Untreated cell cultures (negative control). • Cells treated with the peptide of the present invention (at 0.005 mg/mL, 0.01 mg/ml or 0.05 mg/mL).
Treatment was performed for 48 hours. Treatments were performed in triplicate and in two different experimental sessions.
The experimental model used in this study were Human Fibroblast (SF-TY JCRB) cultivated in MEM with fetal bovine serum 10% and 1% antibiotics at 37° C., 5% CO2.
Cells were seeded in 96-well plate at 1×10^4 cells/well and maintained for 24 h at standard culture conditions (37° C., 95% Relative Humidity, 5% CO2) before the treatment was applied.
At the end of the experimental period, the determination of Hyaluronic synthesis was carried out by means of ELISA method. Commercial kits were used for this purpose. The test kit employed a two-site sandwich ELISA to quantitate HA in samples. Briefly, an antibody specific for HA was pre-coated onto a microplate; Standards and samples were pipetted into the wells and any HA present got bound by the immobilized antibody; after removing any unbound substances, a biotin-conjugated antibody specific for HA was added to the wells; after washing, Streptavidin conjugated Horseradish Peroxidase (HRP) was added to the wells; following a wash to remove any unbound avidin-enzyme reagent, a substrate solution was added to the wells and color developed in proportion to the amount of HA bound in the initial step. The color development was stopped, and the intensity of the color was measured. A calibration curve of known concentrations of standard hyaluronic acid was used to perform the determination of the tested samples.
The results are expressed as % of HA content in cell culture medium and cell lysate, which is calculated by stablishing the content of HA in the negative control as 100% and making the appropriate comparison with the rest of the samples.

ECM-related genes = assay: RT-qPCR expression of ECM-related genes in HDFa cells; format: cell-based, human
Procedure: A stock solution of the peptide was prepared in milli-Q water at 25 mg/mL. This stock was further diluted in the corresponding supplemented medium to obtain the final working concentrations of 0.05, 0.01 and 0.005 mg/mL. Untreated cells were used as negative control samples.
The relevant genes for which the expression was measured were: MMP1 (matrix metallopeptidase 1), HYAL1 (hyaluronidase 1), TIMP2 (TIMP metallopeptidase inhibitor 2), HAS1 (hyaluronan synthase 1), FBLN5 (fibulin 5), LOXL1 (lysyl oxidase like 1), COL4A1 (collagen type IV alpha 1 chain), COL3A1 (collagen type III alpha 1 chain) and COL7A1 (collagen type VII alpha 1 chain). The primers used for each of the genes were commercially available TaqMan Gene Expression Assay probes.
Briefly, HDFa cells were seeded in 12-well plates at a density of 1.5×10^5 cells/well and maintained at standard culture conditions (106 Medium supplemented with 1% LSGS; 37° C., 95% Relative Humidity, 5% CO2) for 24 hours. Then, cells were treated with the above-mentioned peptide at 0.005, 0.01 or 0.05 mg/mL for additional 6 or 24 hours.
Cells were finally lysed, and RNA extraction was performed using Qiagen RNeasy Mini kit following manufacturer's instructions. Purified RNAs were used to generate the corresponding cDNAs by reverse transcription which served as templates for amplification. RT-qPCR was performed with the panel of TaqMan assay probes specified above and 2x gene expression Master Mix using StepOne plus Real-Time PCR instrument. Amplification included 40 cycles of: 15 seconds at 95° C. (denaturation) and 1 minute at 60° C. (Annealing and extension).
The obtained data were analyzed using the ΔΔCt method, which provides the target gene expression values as fold changes in the treated sample compared with an untreated basal sample. Both samples were normalized with the relative expression of a housekeeping gene GAPDH (Glyceraldehyde 3-phosphate dehydrogenase).
The steps for analysis included: • 1. Calculate the average Ct for each condition • 2. Calculate the ΔCT test sample and the ΔCT calibrator sample • 3. Calculate the ΔΔCT: ΔΔCT=ΔCT test sample−ΔCT calibrator sample • 4. Obtain ratio by 2^−ΔΔCT

[6] = 24 h, 0.05 mg/ml of the peptide

## NC1=N[C@H](O)[C@H]2[C@H]3O[C@]4(O)O[C@@H]([C@@H](O)[C@@]2(N1)[C@@H]4O)[C@]3(O)CO [TTX, tetrodotoxin, reference compound]
[1]
  blocking effect on sodium channels: full blocking effect

## Ile-Glu-Pro-Tyr-Tyr-Val-NH2 (IEPYYV-NH2) [SEQ ID NO: 5—NH2]
[1]; 0.005 mg/mL, SHSY-5Y cells
  ranking of sodium channel inhibition among tested peptides at the lower concentration: performed the best

## Lys-His-Arg-Ser-Tyr-NH2 (KHRSY-NH2) [SEQ ID NO: 3—NH2]
Human NaV1.3
  inhibition of NaV1.3 inward currents: increased and statistically significant effect

## Lys-Arg-Arg-Tyr-Tyr-Cys-NH2 (KRRYYC-NH2) [SEQ ID NO: 2—NH2]
Human NaV1.3
  inhibition of NaV1.3 inward currents: increased and statistically significant effect

## KDRVY-NH2 [SEQ ID NO: 4—NH2, Lys-Asp-Arg-Val-Tyr-NH2]
[1]; 0.01 and 0.05 mg/mL, SHSY-5Y cells
  ranking of sodium channel inhibition among tested peptides at the two higher concentrations: best results
[2]
  expression of sodium channels and muscle contraction-related genes (SCN1B, SCN4A, SCN3A, CALM3, RAPSN): downregulate
HDFa cells [3]
  elastin levels: increase of elastin levels
HDFa cells [4]; HDFa, 0.05 mg/mL (highest tested concentration)
  increase of procollagen I alpha 1 protein release: 53%
HDFa cells [4]; HDFa, 0.01, 0.015 and 0.05 mg/mL, vs untreated cells
  procollagen I alpha 1 protein release: increased at all tested concentrations, in a dose-dependent manner
[5]; 0.005 mg/mL
  % Variation with regard to negative control: 7.57** %
  % HA content: 107.57** %
[5]; 0.01 mg/mL
  % Variation with regard to negative control: 21.75*** %
  % HA content: 121.75*** %
[5]; 0.05 mg/mL
  % Variation with regard to negative control: 39.21*** %
  % HA content: 139.21*** %
ECM-related genes; 6 h, 0.005 mg/ml of the peptide
  HYAL1 gene expression: downregulation
ECM-related genes; 6 h, 0.05 mg/ml of the peptide
  HAS1 gene expression: upregulation
ECM-related genes; 24 h, 0.01 mg/m of the peptide
  COL3A1 gene expression: upregulation
  COL4A1 gene expression: upregulation
  MMP1 gene expression: downregulation
ECM-related genes; [6]
  COL7A1 gene expression: upregulation
  FBLN5 gene expression: upregulation
  LOXL1 gene expression: upregulation
  TIMP2 gene expression: upregulation
